The values that follow come from paper PMC7672115 (Scientific Reports, 2020).

In series [1] the test system is SARS-CoV-2. Description: microbe, parasite or virus in culture. Type of series: cell-based. The settings on record: for IC50: read-out: IC50 (plaque reduction assay); for concentration with absolute inhibition of the infectious virion production: post-treatment approach, Vero E6, plaque assay. Background: Plaque reduction counts the foci of infection that form in a cell layer.

Series [2] in a line: in vitro. Type of series: cell-based. The procedure: (§1) Cells were seeded on 96-well plates at 5 × 10^4 cells/well and treated with various concentrations of the extracts or purified compounds for 48 h. Cell viability was evaluated by an MTT colorimetric assay. In brief, the medium was replaced with MTT [3-(4,5-dimethylthiazol-2-yl)-2,5-diphenyltetrazolium bromide] (Sigma-Aldrich, USA) and incubated for 4 h at 37 °C in a humidified incubator with 5% CO2. The formazan crystal was dissolved with DMSO (Merck, Germany) and measured at a wavelength of 570 nm by EnVision Multilabel Reader (PerkinElmer, USA). Data was normalized versus the solvent control, and then CC50 values were calculated using GraphPad Prism 7.

Series [3] concerns SARS-CoV-2. Description: microbe, parasite or virus in culture. The conditions noted are these: Severe acute respiratory syndrome coronavirus 2, Vero C1008, 48 h, read-out: IC50 (virus inhibition, high-content imaging/IFA).
Series [4] has as its system SARS-CoV-2. Description: microbe, parasite or virus in culture. In kind it is cell-based. The conditions noted are these: for %Inhibition at 10 µM: purified compounds.
Series [5] concerns SARS-CoV-2. Description: microbe, parasite or virus in culture. The settings on record: Severe acute respiratory syndrome coronavirus 2, Vero C1008, read-out: IC50 (virus inhibition, high-content imaging).
Series [6] concerns SARS-CoV-2. Description: microbe, parasite or virus in culture. Type of series: cell-based. The settings on record: Vero E6.
The test system of series [7] is SARS-CoV-2. The conditions noted are these: pre-entry, Vero E6.
Series [8] concerns SARS-CoV-2. The settings on record: for SI (CC50/IC50): post-infection, Vero E6.
For series [9], the system named is SARS-CoV-2. Description: microbe, parasite or virus in culture. Type of series: cell-based.
A short description of series [10]: Cell viability assay (MTT) in Calu-3 cells. The settings on record: human.
The test system of series [11] is SARS-CoV-2. Description: microbe, parasite or virus in culture. Type of series: cell-based. The source holds these as a separate data set.
The subject of series [12] is HepG2, imHC, HK-2, SH-SY5Y, Caco-2. Description: Cell viability assay (MTT) in various human cell types. In kind it is cell-based. The conditions noted are these: 0 - 100 µM, 48 h.
For series [13], the system named is SARS-CoV-2. Description: Plaque reduction assay of viral output, pre-entry treatment, Vero E6 cells. Type of series: cell-based.
Series [14] can be described thus: in vitro. The conditions noted are these: human.
A further series relates to Vero E6 cells. Description: in vitro. Type of series: cell-based. The settings on record: Vero E6, post-infection treatment setting, 48 h. The method, then:
as §1

Where [15] appears, read: Severe acute respiratory syndrome coronavirus 2, Vero C1008, 48 h.
The mark [16] stands for this setting: Vero E6, post-infection treatment setting, 48 h, read-out: CC50.
Where [17] appears, read: Severe acute respiratory syndrome coronavirus 2, Vero C1008, post-infection treatment, Vero E6, 48 h.
Setting [18] is: Severe acute respiratory syndrome coronavirus 2, Vero C1008, purified compounds, single dose 10 µM, Vero E6, SARS-CoV-2 25TCID50, read-out: %Inhibition at 10 µM.
The mark [19] stands for this setting: single dose 10 µM, Vero E6, SARS-CoV-2 25TCID50.
Setting [20] is: Vero E6, pre-entry treatment setting, read-out: CC50.

Like-named read-outs stand apart in the source and are kept apart here. Some results are limits rather than exact numbers.

As a reminder, the inhibition is the relative decrease from the control value, in per cent. What is called %Inhibition is the change of the read-out against control, counted positive when it falls.

Turning to `CCCCC[C@H](O)CC(=O)CCc1ccc(O)c(OC)c1` [6-Gingerol], the IC50 is 1.38 µM in the series with SARS-CoV-2 [1] (setting [15]) and above 100 µM in the series on SARS-CoV-2 [3]. Besides, in the series “in vitro [2]” (setting [16]), the CC50 at 48 h was above 100 µM. In the series with SARS-CoV-2 [4] (Severe acute respiratory syndrome coronavirus 2, Vero C1008, read-out: %Inhibition at 10 µM), the inhibition at 10 µM was 7.78%. In addition, the “inhibitory activity against SARS-CoV-2 infection (in words)” value in the series with SARS-CoV-2 [4] (extract at 10 µg/mL, compound at 10 µM) is given as “mild effect”.

As for `C=C1CC[C@@H]2[C@](C)(CO)[C@H](O)CC[C@@]2(C)[C@@H]1C/C=C1/C(=O)OC[C@H]1O` [Andrographolide], the values for the IC50 in the series with SARS-CoV-2 [1] (setting [17]) and with SARS-CoV-2 [3] were 0.28 µM and 6.58 µM, respectively. Besides, in the series with SARS-CoV-2 [1], the “concentration with absolute inhibition of the infectious virion production” value was found to be 12.5 µM. The same compound displayed a CC50 at 48 h in “in vitro [2]” (African green monkey, CC50) of 27.8 µM. Besides, the inhibition at 10 µM in the series on SARS-CoV-2 [4] (setting [18]) is 99.9%. Besides, the “%Inhibition at 10 µM” value in the series on SARS-CoV-2 [4] (single dose 10 µM, Vero E6, SARS-CoV-2 25TCID50, listed as ECDD-NAD) was 99.97%.

As for `CCCCCCC[C@H](O)CC(=O)CCc1ccc(O)c(OC)c1` [ECDD-DPM-N95, 8-Gingerol], in the series with SARS-CoV-2 [4] (setting [19]), the “%Inhibition at 10 µM” value is listed as 17.59%.

`CCCCCCCCC[C@H](O)CC(=O)CCc1ccc(O)c(OC)c1` [ECDD-DPM-N96, 10-Gingerol]: the “%Inhibition at 10 µM” value in the series on SARS-CoV-2 [4] (setting [19]) is given as 23.51%.

On to `CCCCC/C=C/C(=O)CCc1ccc(O)c(OC)c1` [ECDD-DPM-N97, 6-Shogaol], for which the “%Inhibition at 10 µM” value with SARS-CoV-2 [4] (setting [19]) stood at 12.17%.

For the compound `COc1c(O)cc2oc3cc(O)c(CC=C(C)C)c(O)c3c(=O)c2c1CC=C(C)C` [ECDD-NAM, alpha-mangostin], the “%Inhibition at 10 µM” value in the series on SARS-CoV-2 [4] (setting [19]) came to 9.08%.

Regarding `CCN(CCO)CCCC(C)Nc1ccnc2cc(Cl)ccc12` (stereo not shown) [Hydroxychloroquine, reference compound], the IC50 in the series on SARS-CoV-2 [1] (setting [17]) came to 0.282 µM; with SARS-CoV-2 [5], 8.07 µM; in the series with SARS-CoV-2 [6] (Severe acute respiratory syndrome coronavirus 2, Vero C1008, pre-infection phase, read-out: IC50 (virus inhibition, high-content imaging)), 20.6 µM; in the series with SARS-CoV-2 [3], 5.08 µM. In addition, the CC50 at 48 h was above 100 µM in “in vitro [2]” (African green monkey, Vero E6, post-infection treatment setting, 48 h, read-out: CC50); above 100 µM in “in vitro [2]” (African green monkey, Vero E6, pre-infection phase setting, read-out: CC50); above 100 µM in “in vitro [2]” (setting [20]). The “SI (CC50/IC50)” value in the series on SARS-CoV-2 [7] is on record as above 12.39; with SARS-CoV-2 [8], above 19.68.

For the compound `CCCCCCCCC/C=C/C(=O)CCc1ccc(O)c(OC)c1` [MUC1775, 10-Shogaol], in the series with SARS-CoV-2 [4] (setting [19]), the “%Inhibition at 10 µM” value is on record as 5.7%.

Turning to `COc1cc(O)c(C(=O)[C@@H]2[C@H](CC=C(C)C)C(C)=CC[C@H]2c2ccccc2)c(O)c1` [Panduratin A], the IC50 is 0.53 µM with SARS-CoV-2 [9] (Severe acute respiratory syndrome coronavirus 2, post-treatment, Calu-3, read-out: IC50 (plaque assay)); 0.078 µM in the series with SARS-CoV-2 [1] (setting [17]); 5.3 µM with SARS-CoV-2 [5]; 2.04 µM in the series on SARS-CoV-2 [11] (Severe acute respiratory syndrome coronavirus 2, post-treatment, Calu-3, read-out: IC50 (virus inhibition, high-content imaging/IFA)); 7.62 µM in the series on SARS-CoV-2 [13] (Severe acute respiratory syndrome coronavirus 2, Vero C1008, Vero E6); 0.81 µM in the series with SARS-CoV-2 [3]. For the same compound, the CC50 at 48 h is 43.9 µM in series [10], 14.7 µM in the series “in vitro [2]” (setting [16]) and 43.5 µM in “in vitro [2]” (setting [20]). In the series with SARS-CoV-2 [1], the “concentration with absolute inhibition of the infectious virion production” value was 5 µM. Besides, in the series with SARS-CoV-2 [6] (cells treated with extract/compound before viral adsorption), the “antiviral effect (in words)” value is on record as “did not exerted a dramatic antiviral effect”. For the same compound, the “SI (CC50/IC50)” value in the series on SARS-CoV-2 [7] was found to be 8.20; in the series with SARS-CoV-2 [8] it was 18.16. Further, the “cytotoxicity at the therapeutic window (in words)” value in [12] was “no or minimal cytotoxicity”. For the same compound, the “dose with absolute suppression of the infectious virion production” value in the series with SARS-CoV-2 [13] (Vero E6, plaque assay) amounted to 50 µM. In addition, in the series on SARS-CoV-2 [4] (setting [18]), the inhibition at 10 µM came out at 99.9%. In addition, in the series with SARS-CoV-2 [4] (single dose 10 µM, Vero E6, SARS-CoV-2 25TCID50, listed as ECDD-NPA), the “%Inhibition at 10 µM” value stood at 99.97%.

On to `CCC(CC)COC(=O)[C@H](C)N[P@](=O)(OC[C@H]1O[C@@](C#N)(c2ccc3c(N)ncnn23)[C@H](O)[C@@H]1O)Oc1ccccc1` [Remdesivir, reference compound], for which the IC50 with SARS-CoV-2 [9] (Severe acute respiratory syndrome coronavirus 2, Calu-3, read-out: IC50 (plaque assay)) worked out at 0.086 µM; in the series on SARS-CoV-2 [1] (setting [15]), 2.65 µM; in the series on SARS-CoV-2 [11] (Severe acute respiratory syndrome coronavirus 2, Calu-3, read-out: IC50 (virus inhibition, high-content imaging/IFA)) it was 0.043 µM; in the series with SARS-CoV-2 [3], 2.71 µM. The compound also came in with a CC50 in “in vitro [14]” of 16 µM.

Turning to Ivermectin [reference compound], the CC50 in the series with Vero E6 cells was found to be 31.7 µM. In addition, the IC50 with SARS-CoV-2 [8] (read-out: IC50 (virus inhibition, high-content imaging/IFA), post-infection treatment, Vero E6, 48 h) worked out at 12.7 µM.
